This note sets out measurements from PMC12040169 (PLOS Biology, 2025).

Usually viability stands for a read-out of living cells in per cent, often relative to untreated cells.

The data set in a line: in vitro. Conditions: human, hela cells, % viability.

Take `Cc1ccc(N2CC(c3nc(-c4ccncc4)no3)CC2=O)cc1Cl` (stereo not shown) [CBK288582]: the viability at 28.5 h, 10 µM was 109%. As for `CN(C)CCCNC(=S)NCc1ccc(Cl)cc1` [CBK266910], the viability at 28.5 h, 10 µM stood at 97.3%.

For `CCCCCC(=O)N[C@H]1CCC[C@H]1C(=O)O` [CBK007807], the viability at 28.5 h, 10 µM is 118%. In the case of `CC(C)c1ccc(/C=C/C(=O)NC(=S)Nc2cccc(C(=O)O)c2)cc1` [CBK265024], the viability at 28.5 h, 10 µM stood at 94.3%. Same read-out and setting: then `Cc1cccc(C(=O)N2CCN(Cc3nc4ccccc4[nH]3)CC2)c1` [CBK304399], with 90.2%; and `Oc1ccc(Nc2cc(-c3ccccc3)ncn2)cc1` [CBK291157], with 79.8%; and `CC1CN(C(=O)OC(C)(C)C)CCN1` (stereo not shown) [CBK000069C], with 100%. Same read-out and setting: then `Cc1ccc2oc(-c3ccc(C)c(NC(=S)NC(=O)c4ccc([N+](=O)[O-])cc4)c3)nc2c1` [CBK263897], with 90.4%. In the case of `Cc1nn(CC(=O)NC(C)(C)C)c(=O)c2cc3ccsc3n12` [CBK284082], the viability at 28.5 h, 10 µM is 83.2%.

As for `CCC(C)(C)c1ccc(S(=O)(=O)Nc2n[nH]cc2Br)cc1` [CBK043734], the viability at 28.5 h, 10 µM is 85%. Still for that read-out and setting: in the case of `O=C(N[C@H]1C[C@H](c2nnc(CO)n2C2CC2)C1)c1ccc(Cl)c(F)c1` [CBK307093] it was 91.4%. Consider `Cc1ccc(S(=O)(=O)N(C)CC(=O)NCc2nc(-c3ccccc3)no2)cc1` [CBK268524], for which the viability at 28.5 h, 10 µM came to 93.4%. On the same count and under the same terms, in the case of `COc1cccc(CCOc2cncc(Cl)n2)c1` [CBK113556] it was 87.3%. Take `Cc1nn(-c2ccccn2)c(N)c1C1CC(=O)N(c2ccc(C(=O)O)cc2)C1=O` (stereo not shown) [CBK291180]: the viability at 28.5 h, 10 µM is 95.2%.

In the case of `CCC(C)NC(=O)Cn1cccc2cc(C3CCNCC3)nc1-2` (stereo not shown) [CBK284681], the viability at 28.5 h, 10 µM was determined as 110%. Consider `CC12CN3CC(C)(CN(C1)C3c1cccc([N+](=O)[O-])c1)C2=O` (stereo not shown) [CBK009030], for which the viability at 28.5 h, 10 µM stood at 88.9%. Regarding `COC(=O)c1ccccc1NC(=O)NCc1cc(C)n(C)n1` [CBK266887C], the viability at 28.5 h, 10 µM was 109%.

For the compound `COc1cc(CNC(=O)c2ccc(O)nc2)ccc1OCc1ccncc1` [CBK298297], the viability at 28.5 h, 10 µM came out at 96.9%.

With `Cn1cc(C(=O)N2CCC(c3ccccc3)C2)c2ccccc2c1=O` (stereo not shown) [CBK281921], the viability at 28.5 h, 10 µM turned out to be 103%. Still for that read-out and setting: in the case of `NC(=O)N/N=C/c1cc(Br)cs1` [CBK026434] it was 81.8%; in that of `COc1ccc(C)cc1NC(=O)c1cnc2sc(C)cn2c1=O` [CBK287714], 105%; in that of `CC(C)c1nccn1CCC(=O)N1CCC(c2ccncc2)CC1` [CBK283512], 105%. Still for that read-out and setting: in the case of `CC(C)(C)NC(=O)COc1ccc(CNc2nc[nH]n2)cc1` [CBK288179] it was 89.3%; in that of `O=C(CN1CCCCC1Cn1cccn1)NCc1ccccn1` (stereo not shown) [CBK306146], 84%; in that of `COc1ccccc1-c1nnc(NCc2ccc3c(c2)OCO3)nc1-c1ccccc1OC` [CBK286284], 96.4%. In the case of `O=C(Nc1cccc2cccnc12)c1cccc2ccccc12` [CBK261473], the viability at 28.5 h, 10 µM was found to be 72.7%. In the case of `O=C(O)c1ccccc1SC(C[N+](=O)[O-])c1ccccc1Cl` (stereo not shown) [CBK097071], the viability at 28.5 h, 10 µM was found to be 95.6%. In the case of `COc1cc2c(cc1OC)CN(Cc1cc(=O)[nH]c(=O)[nH]1)CC2` [CBK126393], the viability at 28.5 h, 10 µM worked out at 103%.

Consider `O=C(NCCN1CCCCC1)C1CC(=O)N(Cc2ccncc2)C1` (stereo not shown) [CBK306629], for which the viability at 28.5 h, 10 µM is 100%. Same read-out and setting: then `O=c1[nH]c2ccncc2c2ccccc12` [CBK016740C], with 92%; and `Fc1cc(Br)ccc1-c1cn(-c2ccccc2)nn1` [CBK113148], with 80.7%.

For the compound `Cc1nc(C)c(CC(=O)Nc2cccc(CN3CCCC3)c2)s1` [CBK281426], the viability at 28.5 h, 10 µM was found to be 105%. The same measure, in the same setting: then `CCN1CCCN(c2ccnc(OCCN3CCOCC3)n2)CC1` [CBK083807], with 114%; and `C=CCN1C(=O)C2(CC(=O)N(CCC3CCCCC3)C2=O)c2ccccc21` (stereo not shown) [CBK075160], with 107%; and `COC(=O)c1ccc(NC(=O)CSc2nnc(-c3ccncc3)s2)cc1` [CBK269239], with 103%. As for `CC12CN3CC(C)(CN(C1)C3c1ccc(O)cc1)C2O` (stereo not shown) [CBK262663], the viability at 28.5 h, 10 µM stood at 107%. With `Nc1nccnc1C(=O)Oc1ccccc1` [CBK090311], the viability at 28.5 h, 10 µM came to 88.1%.

Turning to `Cc1ccc2oc(C(=O)Nc3sc4c(c3C(=O)NCC3CCCO3)CCC4)c(C)c2c1` (stereo not shown) [CBK266282], the viability at 28.5 h, 10 µM came to 111%. On the same count and under the same terms, in the case of `O=S(=O)(c1ccc(-c2csc(-c3cccnc3)n2)cc1)N1CCCCCC1` [CBK265502] it was 106%. As for `O=C1NC(=O)N(Cc2ccccc2)C(=O)/C1=N\Nc1ccc([N+](=O)[O-])cc1` [CBK261123], the viability at 28.5 h, 10 µM (bulk resorufin, single well) turned out to be 94.5%. On to `O=C(CSc1ccc2nnc(-c3ccc(F)cc3)n2n1)N1CCCCC1` [CBK287520], for which the viability at 28.5 h, 10 µM was 98.4%. As to `N#C/C(=C/c1ccc(-c2cc(C(=O)O)cc(C(=O)O)c2)o1)c1nc2ccccc2s1` [CBK266754], the viability at 28.5 h, 10 µM turned out to be 103%.

Consider `O=C(NCCN1CCOCC1)c1ccc(Nc2cncc(-c3ccc(O)cc3)n2)cc1` [CBK115692], for which the viability at 28.5 h, 10 µM amounted to 77.1%. Same read-out and setting: then `O=C(c1cccc(F)c1)N1CCCC(c2cc3cccnc3[nH]2)C1` (stereo not shown) [CBK284939], with 122%. Regarding `CCCCn1nccc1NC(=O)NC(C)c1ccncc1` (stereo not shown) [CBK304840], the viability at 28.5 h, 10 µM was found to be 99.2%. Regarding `CC(=O)Nc1ccc(-c2cc(Nc3cccc(N(C)C)c3)ncn2)cc1` [CBK091017], the viability at 28.5 h, 10 µM is 83.7%.

For `Cc1ccc(S(=O)(=O)N2CCN(C(=O)C3CCCCC3C(=O)O)CC2)cc1C` (stereo not shown) [CBK286936], the viability at 28.5 h, 10 µM turned out to be 97%.

With `COc1ccc2c(c1OC)C(=O)N1c3ccccc3COC21` (stereo not shown) [CBK109960], the viability at 28.5 h, 10 µM came to 103%. Same read-out and setting: then `CNS(=O)(=O)c1ccc(NC(=O)c2cc(-c3ccc4c(c3)OCO4)nc3ccccc23)cc1` [CBK267735], with 99%. With `Cc1cc(COC(=O)c2nn(-c3ccc(F)cc3)c3c2CCCC3)on1` [CBK295305], the viability at 28.5 h, 10 µM was found to be 105%. On the same count and under the same terms, in the case of `CCN1CCN(C(=O)Cc2ccc(N(C)C)cc2)CC1` [CBK200253] it was 82.2%; in that of `Cc1cccc(C(C)(C)C)c1NC(=O)N1CCC(Cc2ccccc2)CC1` [CBK043962], 112%; in that of `O=C(Nc1ccc(OC(F)(F)F)cc1)c1cnc(-c2ccc(Cl)cc2)c(-c2ccc(O)cc2)c1` [CBK037485], 109%.

As to `Clc1cccc(-c2cncc(N3CCN(Cc4ccccn4)CC3)n2)c1` [CBK037282], the viability at 28.5 h, 10 µM is 99.5%. Same read-out and setting: then `O=Cc1cn(CCC(=O)O)nc1-c1cc2ccccc2o1` [CBK265376], with 90%. Still for that read-out and setting: then `COc1ccc(CNc2nc(-c3cccnc3)nn2C(=O)c2ccc([N+](=O)[O-])cc2)cc1` [CBK268966], with 98.9%. On the same count and under the same terms, in the case of `O=c1[nH]c2ncc(-c3ccc4c(c3)OCO4)nc2n1C1CC1` [CBK064922] it was 98.5%; in that of `Cc1nc(COc2ccccc2Cl)sc1-c1ccnc(N)n1` [CBK057769], 91.3%. In the case of `Cc1sc2c(C3CCN(C(=O)C4CC4)CC3)nc(C)n2c1C` [CBK285298], the viability at 28.5 h, 10 µM came out at 101%. The same measure, in the same setting: then `COc1ccc(Nc2nc(-c3sc(C)nc3C)cs2)c(OC)c1` [CBK267170], with 46.5%; and `CC(C)C(CO)NC(=O)C1(Cc2ccc(-c3ccc(F)c(F)c3)cc2)CCOCC1` (stereo not shown) [CBK286525], with 87.7%; and `CCC(Sc1nc(C)cc(C)n1)C(=O)N1c2ccccc2Sc2ccccc21` (stereo not shown) [CBK263018], with 92.9%.

Regarding `COC(=O)c1c(NC(=O)c2c(C)c(-c3ccc(Cl)cc3Cl)nc3ccccc23)sc2c1CCC(C)C2` (stereo not shown) [CBK262644], the viability at 28.5 h, 10 µM worked out at 82.9%.

In the case of `Cc1ccc(C2(O)CCN(C(=O)CC3CCN(C(=O)CC4CCCCC4)CC3)C2)cc1` (stereo not shown) [CBK286132], the viability at 28.5 h, 10 µM worked out at 96.9%. For `COc1ccc(NC(=O)CSc2ncnc3c2oc2ccccc23)c(OC)c1` [CBK287395], the viability at 28.5 h, 10 µM was 87%.

Consider `O=C(CCS(=O)(=O)c1nc(-c2ccccc2)cc(C(F)(F)F)n1)Nc1ccc(Cl)cc1Cl` [CBK268717], for which the viability at 28.5 h, 10 µM is 84.9%. Turning to `COc1ccc(CC(=O)N2CCCCC2c2cc(-c3ccc(F)cc3)cc(C)n2)cc1OC` (stereo not shown) [CBK285858], the viability at 28.5 h, 10 µM was 98.8%. Still for that read-out and setting: in the case of `Cc1cc(C)n(C(C)C(=O)NCC2(N(C)C)CCCC2)n1` (stereo not shown) [CBK281713] it was 107%. Consider `Cc1nc(C)n(CCCNc2cc(C(C)C)nc3ccnn23)n1` [CBK307497], for which the viability at 28.5 h, 10 µM turned out to be 79.7%. Same read-out and setting: in the case of `Cc1ccc(C)c2[nH]c(=O)c(CN(CCN3CCOCC3)Cc3nnnn3C3CCCCC3)cc12` [CBK108116] it was 85.3%. Regarding `CSc1cc(C)c2c(c1)COC1(CCN(C(=O)Cc3ccccc3)CC1)O2` [CBK061099], for the setting “bulk resorufin, single well”, the viability at 28.5 h, 10 µM was 93.4%.

Consider `COCCCNC(=O)Cn1c(-c2cccs2)cc2cccnc21` [CBK282559], for which the viability at 28.5 h, 10 µM was found to be 87.2%. With `C(=C\c1ccccc1)/CSc1nnc(CSc2nc3ccccc3s2)n1-c1ccccc1` [CBK264467], the viability at 28.5 h, 10 µM is 101%. Turning to `COc1cc2c(cc1OC)/C(=C(\C(=O)Nc1ccccc1)C(=O)N1CCCCC1)NC(C)(C)C2` [CBK087103], the viability at 28.5 h, 10 µM was 94.5%. Regarding `O=C(Nc1ccc(OC(F)(F)F)cc1)N1CCC2(CC1)OCCO2` [CBK045235], under “bulk resorufin, single well”, the viability at 28.5 h, 10 µM stood at 91.7%. Regarding `O=C(Nc1ccccn1)NC1CCS(=O)(=O)C1` (stereo not shown) [CBK021330], the viability at 28.5 h, 10 µM came to 99.9%. As to `Cc1nc(C)n(CC2CCCN(CC(=O)NCc3ccccn3)C2)n1` (stereo not shown) [CBK305291], the viability at 28.5 h, 10 µM is 86.1%.

Turning to `IC1COC(c2ccccc2)OC1` (stereo not shown) [CBK021109], the viability at 28.5 h, 10 µM was 110%.

On to `O=c1[nH]c(=O)c2cc(S(=O)(=O)N3CCN(c4ccccn4)CC3)ccc2[nH]1` [CBK286379], for which the viability at 28.5 h, 10 µM was 112%.
